Key:
[1] = Alkaline pH stability of dyed fabrics (colour fastness, ΔE); type: physicochemical; conditions: pH 8 with NaOH
Description: (§1) In order to assess the stability and colour fastness of violacein and violacein derivatives dyed onto fabrics, dyed fabrics were subjected to a number of conditions. Fabrics were dyed according to Example 18 and colour coordinates and colour change before and after exposure to a given condition were determined as described in Example 18. To measure temperature stability, fabrics were incubated in an oven set to 80° c. for 4 h. To measure stability under acid and alkaline conditions, fabrics were fully submerged in water solutions set to pH 8 with NaOH and pH 5 with HCl and incubated at room temperature for 30 minutes. Fabrics were then incubated at 37° c. for 4 h. To measure stability during laundering, fabrics were washed at 30° c. under the “mix” setting of a Siemens IQ300 washing machine, then dried in a Siemens IQ300 dryer until dry. To measure artificial light stability, fabrics were placed under an LED lamp at room temperature for 16 h. To measure UV light stability, fabrics were placed under a UV lamp at room temperature for 1 h.

[2] = Acidic pH stability of dyed fabrics (colour fastness, ΔE); type: physicochemical; conditions: pH 5 with HCl
Description: as §1

[3] = UV absorption capability (absorbance maxima, UV-A, UV-B, UV-C absorption) by HPLC; type: physicochemical
Description: The software Agilent Openlab CDS Chemstation Rev.
Violacein is reported as being a potent UV absorbent able to effectively absorb UV radiation, however, much less is known about the other violacein derivatives. To investigate the potential of using violacein and violacein derivatives as UV inhibitors and to potentially impart UV protection to fabrics, the UV absorption spectra of each compound was analyzed by HPLC and the total absorption capability at each of the most relevant UV wavelengths quantified.
For the quantification of UV absorption capacity of the compound of interest, a chromatographic separation on the F5 column and a gradient of water/acetonitrile containing 0.05% formic acid was run according to Example 5). […] The compounds were quantified based on the signal at 230 nm, using calibration curves of authentic analytical standards.
The UV absorption capacity is represented in mAU.min/mM. UV-A, UV-B and UV-C represent the most relevant regions where UV protection is required. UV-C is the most harmful type of UV radiation and can be generated by inorganic sources. UV-B radiation predominantly comes from the suns rays and is responsible for sun burn. UV-A radiation is also derived predominantly from the suns rays, and while UV-A radiation is less harmful than UV-B or UV-C but is much more prevalent.

[4] = test system: E. coli DH5a; assay: Antimicrobial activity of dyed Nylon 6,6 fabric: final OD600 and % inhibition; type: cell-based
Description: (§2) Violacein is reported as being a potent antibiotic, capable of inhibiting the growth of a wide range of microbial kingdoms including bacteria, yeast, fungi, viruses, protozoa and nematode. […] To test this, overnight cultures of wild-type E. coli DH5a and S. cerevisiae S228c strains were diluted in 5 mL of cultivation media (LB for E. coli, minimal media for S. cerevisiae) to a starting OD600 of 0.1. 1.5×1.5 cm dyed Nylon 6,6 fabric strips were sterilized by submerging in 75% ethanol for 15 mins and air drying in a laminar air flow hood before adding to each culture (with undyed Nylon 6,6 fabric as a negative control). […] This experiment provides evidence that all violacein derivatives display antimicrobial properties.

[5] = test system: S. cerevisiae S228c; assay: as above; type: cell-based
Description: as §2

[6] = Acrylic, before and after the stability test
[7] = Bleached cotton, before and after the stability test
[8] = Diacetate, before and after the stability test
[9] = Nylon 6,6, before and after the stability test
[10] = Polyester, before and after the stability test
[11] = Wool, before and after the stability test

L ([1]; Acrylic, After test): 59.52
a ([1]; Acrylic, After test): 0.99
b ([1]; Acrylic, After test): −2.75
L ([1]; Acrylic, Before test): 60.91
a ([1]; Acrylic, Before test): 1.48
b ([1]; Acrylic, Before test): −2.6
ΔE [1, 6]: 1.48
L ([1]; Bleached cotton, After test): 62.83
a ([1]; Bleached cotton, After test): 2.23
b ([1]; Bleached cotton, After test): −8.43
L ([1]; Bleached cotton, Before test): 61.33
a ([1]; Bleached cotton, Before test): 1.92
b ([1]; Bleached cotton, Before test): −9.6
ΔE [1, 7]: 1.93
L ([1]; Diacetate, After test): 53.77
a ([1]; Diacetate, After test): 9.48
b ([1]; Diacetate, After test): −13.38
L ([1]; Diacetate, Before test): 53.4
a ([1]; Diacetate, Before test): 9.48
b ([1]; Diacetate, Before test): −14.88
ΔE [1, 8]: 1.54
L ([1]; Nylon 6,6, After test): 46
a ([1]; Nylon 6,6, After test): 4.44
b ([1]; Nylon 6,6, After test): −20.31
L ([1]; Nylon 6,6, Before test): 45.47
a ([1]; Nylon 6,6, Before test): 6.49
b ([1]; Nylon 6,6, Before test): −22.12
ΔE [1, 9]: 2.79
L ([1]; Polyester, After test): 67.22
a ([1]; Polyester, After test): 2.02
b ([1]; Polyester, After test): −3.88
L ([1]; Polyester, Before test): 66.7
a ([1]; Polyester, Before test): 1.3
b ([1]; Polyester, Before test): −4.19
ΔE [1, 10]: 0.94
L ([1]; Wool, After test): 66.95
a ([1]; Wool, After test): 0.82
b ([1]; Wool, After test): −0.41
L ([1]; Wool, Before test): 65.33
a ([1]; Wool, Before test): 0.19
b ([1]; Wool, Before test): 0.13
ΔE [1, 11]: 1.82
L ([2]; Acrylic, After test): 59.8
a ([2]; Acrylic, After test): 2.01
b ([2]; Acrylic, After test): −3.77
L ([2]; Acrylic, Before test): 58.82
a ([2]; Acrylic, Before test): 2.34
b ([2]; Acrylic, Before test): −2.86
ΔE [2, 6]: 1.38
L ([2]; Bleached cotton, After test): 60.27
a ([2]; Bleached cotton, After test): 0.74
b ([2]; Bleached cotton, After test): −8.67
L ([2]; Bleached cotton, Before test): 58.08
a ([2]; Bleached cotton, Before test): 1.02
b ([2]; Bleached cotton, Before test): −7.23
ΔE [2, 7]: 2.64
L ([2]; Diacetate, After test): 46.41
a ([2]; Diacetate, After test): 12.25
b ([2]; Diacetate, After test): −16.83
L ([2]; Diacetate, Before test): 46.86
a ([2]; Diacetate, Before test): 12.01
b ([2]; Diacetate, Before test): −17.99
ΔE [2, 8]: 1.27
L ([2]; Nylon 6,6, After test): 44.46
a ([2]; Nylon 6,6, After test): 6.37
b ([2]; Nylon 6,6, After test): −22.27
L ([2]; Nylon 6,6, Before test): 43
a ([2]; Nylon 6,6, Before test): 5.21
b ([2]; Nylon 6,6, Before test): −20.47
ΔE [2, 9]: 2.59
L ([2]; Polyester, After test): 64.95
a ([2]; Polyester, After test): 2.03
b ([2]; Polyester, After test): −5.57
L ([2]; Polyester, Before test): 62.77
a ([2]; Polyester, Before test): 2
b ([2]; Polyester, Before test): −5.04
ΔE [2, 10]: 2.24
L ([2]; Wool, After test): 64.01
a ([2]; Wool, After test): 0.41
b ([2]; Wool, After test): −0.81
L ([2]; Wool, Before test): 63.73
a ([2]; Wool, Before test): 0.62
b ([2]; Wool, Before test): −0.94
ΔE [2, 11]: 0.37
UV absorption capability in the UV-C region ([3]; 245 nm): particularly high
Total UV absorption UV C (245 nm) ([3]; AUC of HPLC peak at 245 nm per mM): 9251.6 (mAU · min)/mM
Total UV absorption UV B (305 nm) ([3]; AUC of HPLC peak at 305 nm per mM): 0 (mAU · min)/mM
Total UV absorption UV A (360 nm) ([3]; AUC of HPLC peak at 360 nm per mM): 702.8 (mAU · min)/mM
SMILES: O=C1NC(c2c[nH]c3ccccc23)=C/C1=C1\C(=O)Nc2ccccc21 [deoxyviolacein]
Final OD600 ([4]; E. coli cultured overnight at 30° c. with dyed Nylon 6,6 fabric strip, starting OD600 0.1): 4.62
% Inhibition ([4]; E. coli, dyed Nylon 6,6 fabric vs undyed fabric control): 11.45%
Final OD600 ([5]; S. cerevisiae cultured overnight at 30° c. with dyed Nylon 6,6 fabric strip, starting OD600 0.1): 4.99
% Inhibition ([5]; S. cerevisiae, dyed Nylon 6,6 fabric vs undyed fabric control): 6.90%

— patent US20260092179A1, “GENETICALLY MODIFIED HOST CELLS PRODUCING VIOLACEIN, ANALOGUES, AND DERIVATIVES THEREOF” (OCTARINE BIO APS, priority 2022, published 2026)
